Results on 22 compounds are retold here after ChEMBL document CHEMBL1150535, “Acyclic NK-1 antagonists: 2-benzhydryl-2-aminoethyl ethers” (Bioorg Med Chem Lett, 1994).

Sequence of Substance-P receptor (P25103 whole entry): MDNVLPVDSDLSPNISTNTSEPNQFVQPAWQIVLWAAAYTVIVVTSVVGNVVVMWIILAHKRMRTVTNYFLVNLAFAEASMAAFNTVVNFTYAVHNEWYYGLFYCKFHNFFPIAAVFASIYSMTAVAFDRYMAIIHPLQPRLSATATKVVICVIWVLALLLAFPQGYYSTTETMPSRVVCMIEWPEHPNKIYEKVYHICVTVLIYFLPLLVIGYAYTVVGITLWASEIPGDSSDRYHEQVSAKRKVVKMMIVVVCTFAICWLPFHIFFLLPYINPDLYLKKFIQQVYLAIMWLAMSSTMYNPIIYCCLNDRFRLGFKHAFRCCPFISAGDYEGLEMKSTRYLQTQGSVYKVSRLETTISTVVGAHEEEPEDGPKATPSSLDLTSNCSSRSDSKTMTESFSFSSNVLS

One assay concerns the target Voltage-gated L-type calcium channel (Homo sapiens, UniProt Q13936+Q13698+Q01668+O60840). Briefly: Antagonistic activity at L-type calcium channel by displacement of [3H]diltiazem and enhanced [3H]nitrendipine binding. The class given is protein assay.
Regarding `Cc1cc(C)cc(COCC(NCC(N)=O)C(c2ccccc2)c2ccccc2)c1` (stereo not given), the IC50 was determined as 5.5 µM. As to `NC(=O)CN[C@H](COCc1cc(C(F)(F)F)cc(C(F)(F)F)c1)C(c1ccccc1)c1ccccc1`, the IC50 came out at 1.67 µM.

As for `Cc1cc(C)cc(COC[C@H](C(c2ccccc2)c2ccccc2)N(C)C)c1`, the 50% inhibitory concentration (IC50) is 0.98 µM. `COc1ccccc1CN[C@H]1C2CCN(CC2)[C@H]1C(c1ccccc1)c1ccccc1` [CP-96345]: the concentration for half-maximal inhibition (IC50) came to 0.24 µM.

A further assay concerns the target Substance-P receptor (Homo sapiens, UniProt P25103). Briefly: Binding affinity towards human Tachykinin receptor 1 expressed in CHO cells by the displacement of [125 I] substance P. The format is cell-based.
With `NC(COCc1cccc(Cl)c1)C(c1ccccc1)c1ccccc1` (stereo not given), the 50% inhibitory concentration (IC50) is 0.075 µM. The compound `NC(=O)CNC(COCc1cc(C(F)(F)F)cc(C(F)(F)F)c1)C(c1ccccc1)c1ccccc1` (stereo not given) registered a 50% inhibitory concentration (IC50) of 0.00085 µM. `NC(COCc1cc(Br)cc(Br)c1)C(c1ccccc1)c1ccccc1` (stereo not given) showed an IC50 of 0.0133 µM.

`Cc1cc(C)cc(COCC(NCC2CC2)C(c2ccccc2)c2ccccc2)c1` (stereo not given) showed an IC50 of 0.093 µM. The same measure, in the same setting: with `Cc1cc(C)cc(COCC(NCc2ccccc2)C(c2ccccc2)c2ccccc2)c1` (stereo not given) the figure was 0.082 µM. Same read-out and setting: then `Cc1cc(C)cc(COC[C@@H](C(c2ccccc2)c2ccccc2)N(C)C)c1`, with 0.014 µM; and `Cc1cc(C)cc(COCC(NCC(N)=O)C(c2ccccc2)c2ccccc2)c1` (stereo not given), with 0.0022 µM. `CNC(COCc1cc(C)cc(C)c1)C(c1ccccc1)c1ccccc1` (stereo not given): the concentration for half-maximal inhibition (IC50) worked out at 0.0068 µM. On to `NC(COCc1cccc(I)c1)C(c1ccccc1)c1ccccc1` (stereo not given), for which the IC50 was 0.077 µM. Still for that read-out and setting: with `Cc1ccc(C)c(COCC(N)C(c2ccccc2)c2ccccc2)c1` (stereo not given) the figure was 0.15 µM; with `Cc1cc(C)cc(COCC(NC(C)C)C(c2ccccc2)c2ccccc2)c1` (stereo not given), 0.055 µM; with `Cc1cc(C)cc(COCC(C(c2ccccc2)c2ccccc2)N(C)C)c1` (stereo not given), 0.0044 µM. As for `NC(=O)CN[C@H](COCc1cc(C(F)(F)F)cc(C(F)(F)F)c1)C(c1ccccc1)c1ccccc1`, the IC50 worked out at 0.00053 µM. `NC(COCc1ccccc1)C(c1ccccc1)c1ccccc1` (stereo not given) displayed an IC50 of 0.367 µM. In turn, `Cc1cc(Br)cc(COCC(N)C(c2ccccc2)c2ccccc2)c1` (stereo not given) displayed an IC50 of 0.0097 µM. Compound `Cc1cc(C)cc(COC[C@H](C(c2ccccc2)c2ccccc2)N(C)C)c1` gave an IC50 of 0.0055 µM.

`Cc1cc(C)cc(COCC(NC=O)C(c2ccccc2)c2ccccc2)c1` (stereo not given) showed an IC50 of 0.011 µM. `Cc1cc(C)cc(COCC(O)C(c2ccccc2)c2ccccc2)c1` (stereo not given) gave a 50% inhibitory concentration (IC50) of 0.017 µM. Same read-out and setting: with `CCNC(COCc1cc(C)cc(C)c1)C(c1ccccc1)c1ccccc1` (stereo not given) the figure was 0.0127 µM; with `CC(=O)NC(COCc1cc(C)cc(C)c1)C(c1ccccc1)c1ccccc1` (stereo not given), 0.021 µM. Same read-out and setting: then `NC(COCc1cc(Cl)cc(Cl)c1)C(c1ccccc1)c1ccccc1` (stereo not given), with 0.0113 µM.
